Reference: patent US20070054848A1, “Composition and method for nerve regeneration” (priority 2003, published 2007)
Entries after “also recorded” stand apart in the source; their conditions may differ. Where no end group is shown, it is not given here. The star is where a group is joined. TAT = PTD (protein transduction domain) peptide fused to the peptide; Myristoyl = CCCCCCCCCCCCCC(=O)*

Assays:
[1] = test system: nerve regeneration; assay: Similar experiments with modified amino acid agents (Example 2-8)
Description: Similar experiments were carried out using Pep5 in which alanine was added to the C terminus of the sequence (SEQ ID NO: 2), antibodies for the extracellular domain of p75, and p75 in which alanine was replaced with valine at amino acid 423 in positions 273-427 of SEQ ID NO: 4.

[2] = target: T1, p75 (Mus musculus, UniProt Q9Z0W1); assay: Co-precipitation of p75 with recombinant GST-Pep5; format: binding; details: lysates prepared from post-natal cerebellum
T1 construct: was incubated with lysates prepared from post-natal cerebellum that abundantly express p75; from tissue; host or cells: post-natal cerebellum
T1 sequence (Q9Z0W1 32-427): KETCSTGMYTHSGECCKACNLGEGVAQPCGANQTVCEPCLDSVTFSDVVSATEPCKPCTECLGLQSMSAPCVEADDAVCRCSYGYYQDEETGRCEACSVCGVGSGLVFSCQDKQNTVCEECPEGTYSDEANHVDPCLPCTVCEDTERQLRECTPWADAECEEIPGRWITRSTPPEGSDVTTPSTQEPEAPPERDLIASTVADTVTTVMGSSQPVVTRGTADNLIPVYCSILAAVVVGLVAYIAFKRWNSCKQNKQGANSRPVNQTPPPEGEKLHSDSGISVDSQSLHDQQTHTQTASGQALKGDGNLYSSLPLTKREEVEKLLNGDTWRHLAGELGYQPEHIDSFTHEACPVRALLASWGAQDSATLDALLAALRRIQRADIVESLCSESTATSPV
From the text: As all the myelin-derived inhibitors of axonal regeneration identified so far act on neurons through p75, intervening with p75 signaling after injury to the central nervous system may alleviate myelin-dependent inhibition of axonal regeneration. […] The specific peptide ligand to the p75 HD was previously obtained from a combinatorial library (Ilag, L. L. et al., Biochem Biophys Res Commun. 255, 104-109 (1999)). This ligand is a 15 amino acid residue peptide (Pep5; […] (SEQ ID NO: 2)) and the binding site was mapped by nuclear magnetic resonance spectroscopy onto a hydrophobic patch framed by helices 5 and 6. […] The present inventors first confirmed whether p75 associates with Pep5. Glutathione S-transferase-fusion protein containing Pep5 (GST-Pep5) was incubated with lysates prepared from post-natal cerebellum that abundantly express p75. […] Therefore, Pep5 has a potential to disrupt the signal mediated by p75 in vitro. As the peptide ligand must gain entry into the cell if it is to act directly on the p75 HD in vivo, the present inventors generated Pep5 fused with the amino-terminal 11 amino acid protein transduction domain (PTD domain) from the human immunodeficiency virus protein, TAT (TAT-Pep5) (Schwarze, S. R., Ho, A., Vocero-Akbani, A. & Dowdy, S. F., Science 285, 1569-1572 (1999)). […] Thus, Pep5 may be used as an inhibitor of Rho GDI association with p75.

[3] = target: catalytic domain of Rho-kinase (GST-CAT) (Bos taurus, UniProt Q28021); assay: In vitro binding assay of p21 and Rho-kinase (GST-CAT); details: GST-CAT; aa 6-553
Sequence of catalytic domain of Rho-kinase (GST-CAT) (Q28021 6-553 limits assumed): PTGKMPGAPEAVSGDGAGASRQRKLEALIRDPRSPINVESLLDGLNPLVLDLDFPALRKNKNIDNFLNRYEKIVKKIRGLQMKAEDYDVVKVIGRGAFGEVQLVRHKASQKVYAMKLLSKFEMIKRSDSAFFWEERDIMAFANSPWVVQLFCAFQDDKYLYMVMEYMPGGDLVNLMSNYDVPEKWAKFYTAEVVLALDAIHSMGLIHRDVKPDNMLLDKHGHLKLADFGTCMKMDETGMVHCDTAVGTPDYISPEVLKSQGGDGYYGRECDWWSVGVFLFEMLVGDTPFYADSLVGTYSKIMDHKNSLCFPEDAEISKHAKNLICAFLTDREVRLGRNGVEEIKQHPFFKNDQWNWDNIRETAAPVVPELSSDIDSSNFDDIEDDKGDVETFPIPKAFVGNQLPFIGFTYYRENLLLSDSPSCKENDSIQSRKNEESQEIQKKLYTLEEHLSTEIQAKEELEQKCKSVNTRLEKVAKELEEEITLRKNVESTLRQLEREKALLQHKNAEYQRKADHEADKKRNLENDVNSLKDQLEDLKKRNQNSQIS

[4] = test system: spinal cord; assay: Spinal cord injury in rats, p21 / TAT-bound p21, BBB score; format: in vivo, rat; details: 200 g male Wistar rats; osmotic pump for 2 weeks; observed from day 2 for 6 weeks
[5] = test system: cerebellar granule neurons; assay: Fluorescence Ca2+ imaging (Oregon-green 488BAPTA-1 and Fura Red); format: cell-based; details: p7 rat cerebellar granule neurons
[6] = test system: cerebellar granule neurons from P7 rats; assay: Neurite outgrowth assay, cerebellar neurons; format: cell-based, rat; details: P7 rat cerebellar granule neurons
[7] = test system: DRG neurons; assay: Neurite outgrowth assay, DRG neurons; format: cell-based, mice; details: added exogenously at 100 nM
[8] = test system: cerebellar neurons; assay: Neurite outgrowth assay, post-natal cerebellar neurons; format: cell-based, mice; details: post-natal cerebellar neurons
[9] = test system: RhoA; assay: Affinity-precipitation of GTP-RhoA in cerebellar neurons; format: cell-based, mice; details: post-natal cerebellar neurons
Description: 293 cells were transfected with pcDNA3 vectors containing wild type RhoA whose NH2-terminus is tagged with HA (Yamashita, T. et al., Neuron. 24:585-593, 1999) and/or full-length human p75 by lipofection using Lipofectamine 2000 (Gibco BRL). Cerebellar neurons from P9 mice were isolated as described previously (Cai et. al, Neuron, 22:89-101, 1999). Cells were lysed in 50 mM Tris (pH 7.5), 1% Triton X-100, 0.5% sodium deoxycholate, 0.1% SDS, 500 mM NaCl, 10 mM MgCl2, with leupeptin and aprotinin, each at 10 μg/ml. Cell lysates were clarified by centrifugation at 13,000×g at 4° C. for 10 min, and the supernatants were incubated with the 20 μg of GST-Rho binding domain of Rhotekin beads (Upstate Biotech.) at 4° C. for 45 min. The beads were washed 4 times with washing buffer (50 mM Tris (pH 7.5) containing 1% Triton X-100, 150 mM NaCl, 10 mM MgCl2, 10 μg/ml each of leupeptin and aprotinin). Bound Rho proteins were detected by Western blotting using a monoclonal antibody against RhoA (Santa Cruz Biotechnology).
Amino-terminally FLAG-tagged human p75 or the deletion mutants of p75 ICD were cloned into pcDNA3.1 expression plasmid, and were transfected with 293T cells. […] Bound Rho proteins were detected by Western blotting using a monoclonal antibody against RhoA (Santa Cruz Biotechnology).

[10] = target: T2, interaction of p75 with Rho GDI (Mus musculus, UniProt Q9Z0W1); assay: Co-immunoprecipitation of endogenous p75 and Rho GDI in cerebellar neurons; format: cell-based, mice; details: dissociated cerebellar neurons
T2 construct: endogenous in cells; host or cells: primary cerebellar neurons from P9 mice
T2 sequence (Q9Z0W1 32-427): T1 sequence (Q9Z0W1 32-427)

[11] = test system: spinal cord; assay: Spinal cord injury in rats (dorsal half dissected), BBB score; format: in vivo, rat; details: 200 g male Wistar rats; continuous osmotic pump to the injured site
[12] = test system: spinal cord; assay: Similar spinal cord experiments in mice (Example 2-7); format: in vivo
[13] = target: T3, interaction of p75 with Rho GDI (Homo sapiens, UniProt P08138); assay: Co-immunoprecipitation of p75 with Rho GDI or RhoA in transfected N1E-115 cells; format: cell-based; details: N1E-115 cells transfected with FLAG-tagged p75; Nogo peptide 4 μM, MAG-Fc 25 μg/ml, NGF 100 ng/ml
T3 construct: expressed in transfected cells; host or cells: N1E-115 cells
T3 sequence (P08138 29-427): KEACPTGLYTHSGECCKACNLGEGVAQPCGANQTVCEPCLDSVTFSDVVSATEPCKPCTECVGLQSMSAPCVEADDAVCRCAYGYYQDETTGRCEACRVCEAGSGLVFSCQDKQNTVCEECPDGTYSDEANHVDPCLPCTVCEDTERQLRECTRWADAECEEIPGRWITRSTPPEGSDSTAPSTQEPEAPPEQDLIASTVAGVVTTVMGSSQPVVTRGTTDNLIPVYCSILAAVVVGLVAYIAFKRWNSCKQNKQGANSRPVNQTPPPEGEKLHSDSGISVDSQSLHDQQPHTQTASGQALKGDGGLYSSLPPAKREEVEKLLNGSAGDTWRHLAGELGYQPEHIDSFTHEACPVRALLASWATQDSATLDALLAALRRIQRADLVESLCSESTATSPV

[14] = test system: DRG neurons from P1 rats; assay: Neurite outgrowth assay, dissociated DRG neurons; format: cell-based, rat
[15] = test system: E12 chick dorsal root ganglia explants; assay: Growth cone collapse assay; format: cell-based; details: chick E12 DRG explants; myelin 0.1 to 10 ng/μl
Description: Explants of E12 chick dorsal root ganglia were incubated for 24 hours on plastic slides precoated with 100 μg/ml poly-L-lysine, and were treated for 30 minutes with soluble CNS myelin extracts (Sigma) at the indicated concentrations (MAG-Fc (25 μg/ml) or the Nogo peptide (4 μM)). Explants were fixed in 4% (wt/vol) paraformaldehyde, and were stained with fluorescence-labeled phalloidin (Sigma).

[16] = test system: RhoA; assay: Affinity-precipitation of GTP-RhoA; format: cell-based; details: P7 rat cerebellar neurons
Description: Cells were lysed in 50 mM Tris, pH 7.5, 1% Triton X-100, 0.5% sodium deoxycholate, 0.1% SDS, 500 mM NaCl, 10 mM MgCl2, with leupeptin and aprotinin, each at 10 μg/ml (Tang S. et al., J. Cell Biol., 138, 1355-1366 (1997)). Cell lysates were clarified by centrifugation at 13,000 g at 4° C. for 10 min, and the supernatants were incubated with the 20 μg of GST-Rho binding domain of Rhotekin beads (Upstate Biotechnology) at 4° C. for 45 min. The beads were washed 4 times with washing buffer (50 mM Tris, pH 7.5 containing 1% Triton X-100, 150 mM NaCl, 10 mM MgCl2, 10 μg/ml leupeptin, and 10 μg/ml aprotinin). Bound Rho proteins were detected by Western blotting using a monoclonal antibody against RhoA (Santa Cruz Biotechnology).
To address this, we measured RhoA activity in the neurons. Using the RhoA-binding domain of the effector protein Rhotekin (Ren, X. D. et al., EMBO J., 18, 578-585 (1999)), the GTP-bound form of RhoA can be affinity-precipitated. […] The PKC inhibitor had no effect on the Rho activity induced by MAG-Fc or the Nogo peptide. Thus, promotion of neurite outgrowth of the cerebellar neurons by inhibition of PKC was not mediated by the block of RhoA activation, showing that PKC is not upstream of RhoA.

Question: For “Pep5 in which alanine was added to the C terminus: Pep5 in which alanine was added to the C terminus of the sequence (SEQ ID NO: 2) (CFFRGGFFNHNPRYC)”, which nerve regeneration [1] is on record?
Answer: nerve regeneration was similarly observed

Question: For “GST-Pep5: Glutathione S-transferase-fusion protein containing Pep5”, which “co-precipitation of p75” value [2] is on record?
Answer: revealed the presence of a protein corresponding to p75

Question: Which results are given for “p21: Recombinant full-length p21 (1-164 in SEQ ID NO: 23), cyclin-dependent protein kinase inhibitor”?
Answer: in vitro interaction with Rho-kinase [3]: bound to each other in vitro; functional recovery after spinal cord injury (BBB score) [4]: an effect was not sufficiently observed

Question: For `COc1ccc2c(c1)CC[C@@H]1[C@@H]2CC[C@]2(C)[C@@H](NCCCCCCN3C(=O)C=CC3=O)CC[C@@H]12` [U73122], which “effect on Ca2+ elevation induced by MAG” value [5] is on record?
Answer: blocked

Question: What about the “modulation of neurite outgrowth inhibition by MAG-Fc or the Nogo peptide” value [6] of the same molecule?
Answer: neither PTX nor U73122 modulated

Question: Which “responsiveness of DRG neurons to MAG (25 μg/ml) and the Nogo peptide (4 μM), neurite outgrowth” value [7] does the source give for “TAT-CFFRGGFFNHNPRYC ({TAT}-CFFRGGFFNHNPRYC; cysteine pairing not given here; also: TAT (PTD) sequence not fixed) [TAT-Pep5, Pep5 fused with the amino-terminal 11 amino acid protein transduction domain from HIV TAT]” here?
Answer: abolished their responsiveness

Question: And the “inhibitory effect of MAG (25 μg/ml) and the Nogo peptide (4 μM) on neurite outgrowth” value [8]?
Answer: efficiently silenced the inhibitory effect

Question: What about the “activation of RhoA induced by MAG-Fc or the Nogo peptide” value ([9]; TAT-Pep5 (1 μM)) of the same molecule?
Answer: inhibited the activation of RhoA; also recorded: completely abolishes these effects

Question: What about the “interaction of p75 with Rho GDI induced by MAG-Fc” value [10] of the same molecule?
Answer: significantly inhibited; also recorded: diminished

Question: And the “nerve regeneration after spinal cord injury” value [11]?
Answer: nerve regeneration was significantly observed

Question: What about the nerve regeneration [12] of the same molecule?
Answer: nerve regeneration was similarly observed

Question: Which results are given for “NGF: Nerve growth factor [reference compound]”?
Answer: RhoA activity ([9]; wild type, MAG-Fc 25 μg/ml, Nogo peptide 4 μM): rapidly inhibits RhoA activity; interaction of p75 with Rho GDI as well as RhoA [13]: abolished the interaction

Question: With “PKC inhibitor: cell permeable PKC inhibitor 20-28 (Calbiochem), specific membrane permeable PKC inhibitor peptide (Myristoyl-FARKGALRQ; not fully specified (C-terminus); UniProt P17252 20-28, looked up, fragment)” as the molecule, how does the “neurite outgrowth (substance alone)” value ([6]; MAG-Fc 25 μg/ml, Nogo peptide 4 μM) read?
Answer: no effect on the growth

Question: And the “modulation of MAG-Fc effect on neurite outgrowth” value [14]?
Answer: no modulating effect

Question: What about the “effect on growth cone collapse mediated by myelin” value [15] of the same molecule?
Answer: completely reversed

Question: What about the “effect on Rho activity induced by MAG-Fc or the Nogo peptide” value [16] of the same molecule?
Answer: no effect
